Data on 3 molecules can be found in patent US11058756B2, “Compositions and methods of treating autoimmune disease by reducing enterococcus” (YALE UNIVERSITY, priority 2017, dated 2021).

Assay [1] has as its target T1, AhR (Mus musculus, UniProt P30561).
T1 construct: mice were injected i.p. with 300 mg of CH223191 (a selective AhR antagonist; Sigma-Aldrich) or mock 5 days a week; from tissue; host or cells: whole animal: (NZWxBXSB)F1 hybrid mice
T1 sequence (P30561 10-848): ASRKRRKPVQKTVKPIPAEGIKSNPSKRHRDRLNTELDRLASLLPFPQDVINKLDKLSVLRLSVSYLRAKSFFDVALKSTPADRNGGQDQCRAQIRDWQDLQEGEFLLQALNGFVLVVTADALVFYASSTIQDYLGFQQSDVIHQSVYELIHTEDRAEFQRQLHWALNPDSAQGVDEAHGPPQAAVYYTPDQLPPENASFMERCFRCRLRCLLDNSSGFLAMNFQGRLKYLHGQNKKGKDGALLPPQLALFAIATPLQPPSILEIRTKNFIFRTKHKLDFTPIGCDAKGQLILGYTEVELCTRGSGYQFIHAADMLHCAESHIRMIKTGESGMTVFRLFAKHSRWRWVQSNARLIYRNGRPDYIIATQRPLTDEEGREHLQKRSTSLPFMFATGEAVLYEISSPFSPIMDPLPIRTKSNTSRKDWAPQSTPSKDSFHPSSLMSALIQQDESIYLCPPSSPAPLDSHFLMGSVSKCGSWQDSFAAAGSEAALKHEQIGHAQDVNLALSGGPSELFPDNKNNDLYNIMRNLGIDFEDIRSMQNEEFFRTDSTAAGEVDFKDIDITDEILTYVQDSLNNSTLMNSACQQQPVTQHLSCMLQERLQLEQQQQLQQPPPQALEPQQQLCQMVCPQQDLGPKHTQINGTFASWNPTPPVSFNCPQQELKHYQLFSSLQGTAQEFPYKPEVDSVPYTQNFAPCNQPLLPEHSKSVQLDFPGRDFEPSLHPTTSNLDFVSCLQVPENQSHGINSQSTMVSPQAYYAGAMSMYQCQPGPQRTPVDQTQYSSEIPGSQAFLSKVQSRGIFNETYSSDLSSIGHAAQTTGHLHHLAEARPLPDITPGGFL
As to the kind of experiment: AhR antagonist experiment in E. gallinarum-gavaged (NZWxBXSB)F1 mice. The assay is classed as in vivo. Particulars: 4 weeks; for Th17-inducing effects of E. gallinarum (MLN Th17 cell frequency): CH223191 i.p. 300 μg/mouse/day, 5 days a week, ABX-pretreated, E. gallinarum gavaged, FIG. 20; for autoantibodies-inducing effects of E. gallinarum (serum anti-RNA and anti-dsDNA IgG): CH223191 i.p. 5 days a week, FIG. 4O-4P. As to the method: (§1) Serum antibodies specific for dsDNA and b2GPI were determined using standardized ELISAs (anti-dsDNA antibody, Abcam; and, Mouse/Rat Apolipoprotein H Antibody, R&D Systems; respectively). Anti-RNA was determined by ELISA using defined positive controls (Human/Mouse RNA Polymerase II Antibody, R&D systems). Anti-ERV gp70 ICs and ERV gp70 protein were determined by OD450 signal comparisons (Evans et al., 1990, J Virol, 64, 6176-6183). For anti-dsDNA ELISAs, DNA-BIND™ (Corning) plates were coated with 100 μg/ml salmon sperm DNA (Fisher Scientific) and blocked in 0.1M PBS, 3.0% BSA, 5.0% FBS. The serum was diluted 1:1000 for the assay and incubated for 1 hour at 37° C. Wells were washed and incubated for 1 hour at 37° C. with rabbit anti-mouse IgG (Fisher Scientific) conjugated to HRP and developed with TMB substrate solution. 2M sulfuric acid (Sigma) solution was used to stop development. The concentration of anti-dsDNA was determined by reading the absorbance at 450 nm/570 nm reference.
(§2) For anti-RNA ELISAs, DNA-BIND™ (Corning) plates were coated with […] yeast RNA (Ambion) and blocked in 0.1M PBS, 0.05% Tween-20, 5.0% FBS. The serum was diluted 1:1000 for the assay and incubated for 1 hour at 37° C. Wells were washed and incubated for 1 hour at 37° C. with rabbit anti-mouse IgG (Fisher Scientific) conjugated to HRP and developed with TMB substrate solution. 2M sulfuric acid (Sigma) solution was used to stop development. The concentration of anti-RNA IgG was determined by reading the absorbance at 450 nm/570 nm reference.
For direct ex vivo intracellular cytokine detection, cells isolated from small intestinal lamina propria, MLN or spleen were immediately treated with GolgiStop (BD Bioscience) and surface-stained in FACS buffer (PBS, 2% bovine serum albumin, 0.2 mg of sodium azide, 2 mM EDTA) for 30 minutes in the dark at room temperature with fluorescently conjugated antibodies specific for CD3, CD4, CD11b, CD11c, CD44, CD62L, CD19, CD45, CD45R (B220), CXCR5, GITR, IL-17, IFN-g, Ly6C, NK1.1, PDCA-1, PD-1 and PSGL-1. After staining for surface antigens, some B cells and T cells were stained for intracellular cytokines using intracellular cytokine fixation buffer (eBioscience) and fluorescently conjugated antibodies specific for IL-17, IFN-g and FoxP3 (eBioscience) for 30 minutes in the dark at room temperature. Cell viability was assessed with Zombie NIR Fixable Viability Kit (BioLegend).
(NZWxBXSB)F1 mice were treated with broad-spectrum antibiotics (vancomycin, ampicillin, neomycin and metronidazole) from 10 weeks to 14 weeks of age. 24 hours later mice were gavaged with E. gallinarum every week for 4 weeks. […]

For assay [2], the system named is (NZWxBXSB)F1 mice. As to the kind of experiment: Oral antibiotics in drinking water: mortality, clinical outcome, proteinuria and organ histology in the autoimmune hybrid model. The assay is classed as in vivo, mouse. The text has this:
6-week-old male (NZWxBXSB)F1 mice and C57BL/6J mice were used in this study except if noted otherwise. (NZWxBXSB)F1 were bred by mating NZW/LaJ females with BXSB/MpJ males obtained from Jackson Laboratory (Bar Harbor, Me., USA). Parental littermates of (NZWxBXSB)F1 were randomly mixed with littermates from other parental cages 21 days after birth to equilibrate the microbiomes from different cages and parental origin. All mice were maintained in a specific-pathogen-free environment. (NZWxBXSB)F1 mice were provided with water and a standard laboratory diet ad libitum (2018 Harlan Teklad, South Easton, Mass., USA). They were supplied with hardwood chips as bedding and were housed in a temperature-controlled, air-conditioned room on a 12-hr light-dark cycle. Germ-free (GF) C57BL/6 mice were kept under sterile conditions in CBC's (Class Biologically Clean, Madison, Wis., USA) Quad flexible film isolators (Softwall), exposed to a 12-hr light/dark cycle and provided standard, autoclaved tap water and mouse chow (2018S Harlan Teklad, South Easton, Mass., USA) ad libitum. To exclude a Th17 bias, a PCR for segmented filamentous bacteria (SFB) was performed on fecal DNA from all mice involving Th17 studies. Fecal SFB detection at 6-8 weeks of age that correlates with ileal SFB colonization was performed as described (Barman et al., 2008, Infect Immun, 76, 907-915; Kriegel et al., 2011, Proc Natl Acad Sci USA, 108, 11548-11553). All Th17 data was derived from SFB-negative animals.
(§3) Mice were cohoused for 3 to 4 weeks before antibiotic treatment to allow for equilibration of the microbiota. Single antibiotic or broad-spectrum antibiotic administration consisted of metronidazole (1 g/liter; Fisher Scientific), neomycin (1 g/liter; Fisher Scientific), ampicillin (1 g/liter; Sigma) and vancomycin (0.5 g/liter; Acros Organics) in the drinking water for up to 22 weeks or a targeted regiment for 2 weeks and then replaced with regular water for the duration of the experiment. For broad-spectrum antibiotic experiments (vancomycin, ampicillin, metronidazole, and neomycin combined), sweetener (Equal, 4 g/L) was added to both the antibiotics and control water due to the metallic taste of metronidazole. Twenty-four hours after cessation of antibiotic water, mice were administered 1×10^6 CFUs of vancomycin-resistant E. gallinarum via oral gavage, isolated from liver tissue of a vancomycin-treated mouse that continued to show signs of autoimmune disease (high-level resistance was confirmed by vanC gene PCR). E. gallinarum was grown at 37° C. in Gifu Anaerobic Broth (HIMEDIA Laboratories) to early stationary phase under anaerobic conditions (82% N2, 15% CO2, 3% H2 by volume) in an anaerobic chamber and diluted in PBS to 10^7 CFUs.
Samples were obtained at autopsy and fixed in 10% neutral formalin, and histological sections were stained with hematoxylin and eosin (H&E) and scored in a blinded fashion. Glomerulonephritis was scored on a scale of 0-4 based on the intensity and extent of histopathological changes (Klopfleisch, 2013, BMC Vet Res, 9, 123). A grade of 0 was given to kidneys without glomerular lesions; grade 1 consisted of minimal thickening of the mesangium; grade 2 contained noticeable increases in both mesangial and glomerular cellularity; grade 3 was characterized by the preceding conditions with superimposed inflammatory exudates and capsular adhesions; and grade 4 consisted of obliterated glomerular architecture in greater than 70% of glomeruli. […]

Assay [3] relates to (NZWxBXSB)F1 mice. As to the kind of experiment: Serum ELISAs for anti-dsDNA, anti-RNA, anti-β2GPI IgG, ERV gp70 protein and anti-ERV gp70 immune complexes. The assay is classed as in vivo, mouse. To be noted: single antibiotic in drinking water; 16 weeks of age; FIG. 1B-1C.
Text: as §3, §1, §2
For anti-b2GPI ELISAs, Corning® 96-well EIA/RIA easy Wash™ clear flat-bottom polystyrene high-bind microplates were coated with […] recombinant b2GPI/ApoH (R&D Systems) and blocked in Pierce Protein-Free (PBS) Blocking Buffer (Thermo Scientific). The serum was diluted 1:100 for the assay and incubated at room temperature for 2 hours on a shaker. Wells were washed and incubated while shaking for 30 minutes at room temperature with goat anti-mouse IgG (Fisher Scientific) conjugated to HRP and developed with TMB substrate solution. 2M sulfuric acid (Sigma) solution was used to stop development. The concentration of anti-b2GPI was determined by reading the absorbance at 450 nm/650 nm reference. […]

The test system of assay [4] is E. gallinarum. As to the kind of experiment: Assessment of bacterial translocation and tissue burden (anaerobic tissue cultures, CFU). To be noted: (NZWxBXSB)F1 mice, antibiotics in drinking water; 16-18 weeks of age; FIG. 1K-1N. The assay is classed as in vivo, mouse.
Text: Mice were cohoused for 3 to 4 weeks before antibiotic treatment to allow for equilibration of the microbiota. Single antibiotic or broad-spectrum antibiotic administration consisted of metronidazole (1 g/liter; Fisher Scientific), neomycin (1 g/liter; Fisher Scientific), ampicillin (1 g/liter; Sigma) and vancomycin (0.5 g/liter; Acros Organics) in the drinking water for up to 22 weeks or a targeted regiment for 2 weeks and then replaced with regular water for the duration of the experiment. For broad-spectrum antibiotic experiments (vancomycin, ampicillin, metronidazole, and neomycin combined), sweetener (Equal, 4 g/L) was added to both the antibiotics and control water due to the metallic taste of metronidazole. […] E. gallinarum was grown at 37° C. in Gifu Anaerobic Broth (HIMEDIA Laboratories) to early stationary phase under anaerobic conditions (82% N2, 15% CO2, 3% H2 by volume) in an anaerobic chamber and diluted in PBS to 10^7 CFUs.
14-, 16- and 18-week-old mice underwent sterile laparotomy and nose, mouth, small intestine (luminal and adherent fractions), mesenteric veins, mesenteric lymph nodes (MLN), liver and spleen were aseptically collected in BBL Mycoflask Thioglycollate (Fluid) Prepared Media (BD Diagnostic Systems) and incubated for 72 hours in anaerobic conditions at 37° C. Gifu Media Agar plates were streaked with the content from the BBL Mycoflask Thioglycollate and incubated for 48 hours in an anaerobic chamber at 37° C. Colony Formation Units (CFU) were counted and concentration determined per milligram of tissue. Single colonies were grown in Gifu anaerobic media for 48 hours in an anaerobic chamber at 37° C. and aliquots from each sample were collected and centrifuge for 10 minutes at 10000×g. DNA was extracted from bacterial pellets using DNeasy Blood and Tissue kit (Qiagen) and submitted to PCR amplification of the 16S region and Sanger sequencing. In addition, purified DNA was used for eubacterial, Enterococcus genus and Enterococcus gallinarum PCR assays.
The mark [5] stands for this setting: listed as AHR-selective antagonist.

Take `Cc1ccccc1N=Nc1ccc(NC(=O)c2ccnn2C)c(C)c1` [CH223191]: in assay [1], the “Th17-inducing effects of E. gallinarum (MLN Th17 cell frequency)” value is “reverses”; the “autoantibodies-inducing effects of E. gallinarum (serum anti-RNA and anti-dsDNA IgG)” value is “reverses”. In addition, in assay [1] (setting [5]), the “Th17-inducing effects of E. gallinarum (MLN Th17 cell frequency)” value was “abrogated”; the “autoantibodies-inducing effects of E. gallinarum (serum anti-RNA and anti-dsDNA IgG)” value is “abrogated”.
As to `CC1(C)S[C@@H]2[C@H](NC(=O)[C@H](N)c3ccccc3)C(=O)N2[C@H]1C(=O)O` [ampicillin], the Mortality result in assay [2] (single antibiotic in drinking water from 6 weeks of age, followed for 30 weeks or until death, FIG. 1A) is given as “prevented”. Moreover, the “autoimmune manifestations (proteinuria, organ histology scores)” value in assay [2] (single antibiotic in drinking water, FIG. 1D-1I) is on record as “prevented”. The “lupus-related autoantibodies (serum anti-dsDNA and anti-RNA IgG)” value in assay [3] is “prevented”.
Turning to neomycin, the clinical outcomes in assay [2] (neomycin 1.0 g/L in drinking water) was “did not alter”. For the same molecule, the “Translocation (bacterial growth in mesenteric veins, MLN, liver, spleen)” value in assay [4] was “only to a lesser degree”.
